Assay results as given in publication PMC3583241, “Hit identification of IKKβ natural product inhibitor” (BMC Pharmacology & Toxicology, 2013).

Biological target: T1, IKKβ (Homo sapiens, UniProt O14920)
T1 construct: gene IKBKB; human recombinant IKKβ
T1 sequence (O14920 1-756): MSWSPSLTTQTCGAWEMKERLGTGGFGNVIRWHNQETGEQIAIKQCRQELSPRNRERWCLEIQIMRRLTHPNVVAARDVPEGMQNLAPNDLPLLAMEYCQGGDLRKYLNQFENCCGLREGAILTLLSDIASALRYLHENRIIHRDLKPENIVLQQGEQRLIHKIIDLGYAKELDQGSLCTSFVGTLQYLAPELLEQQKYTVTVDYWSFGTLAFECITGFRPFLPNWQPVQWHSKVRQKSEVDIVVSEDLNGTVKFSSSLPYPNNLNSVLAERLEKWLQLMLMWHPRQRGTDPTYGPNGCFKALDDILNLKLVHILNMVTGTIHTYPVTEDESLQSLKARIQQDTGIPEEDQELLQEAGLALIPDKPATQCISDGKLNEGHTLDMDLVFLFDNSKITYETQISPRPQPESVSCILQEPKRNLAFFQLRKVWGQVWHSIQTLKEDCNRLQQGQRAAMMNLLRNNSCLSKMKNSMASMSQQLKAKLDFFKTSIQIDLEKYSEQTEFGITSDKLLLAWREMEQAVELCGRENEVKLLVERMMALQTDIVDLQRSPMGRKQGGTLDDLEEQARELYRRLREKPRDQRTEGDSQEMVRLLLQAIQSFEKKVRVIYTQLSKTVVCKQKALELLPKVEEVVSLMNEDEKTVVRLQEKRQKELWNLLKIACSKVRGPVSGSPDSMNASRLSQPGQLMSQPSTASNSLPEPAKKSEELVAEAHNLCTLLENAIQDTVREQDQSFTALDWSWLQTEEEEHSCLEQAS
Experiment: ELISA-based K-LISA IKKβ kinase assay with GST-IκBα substrate
Type: biochemical

IC50: ~50 µM
Structure (SMILES): O=C(O)c1ccccc1C(=O)NCCC(c1ccccc1)c1ccco1 (stereo not shown) [compound 1, benzoic acid derivative (1)]
